Measurements as given in the supplement of paper PMC13380429.

Tests used:
Settings in all cases: 72 h
Caco-2 [1] = assay: cell viability relative to DMSO; higher = less toxic
Calu-3 [2] = assay: as above
U2OS [3] = assay: as above
Vero E6 [4] = assay: as above
Caco-2 [5] = assay: relative viability EC50 (midpoint between 100% and the lowest measured viability); higher = less toxic
Calu-3 [6] = assay: as above
U2OS [7] = assay: as above
Vero E6 [8] = assay: as above
Caco-2 [9] = assay: drug sensitivity score (DSS) for viability; higher = more toxic; extreme values may be limits of the assay
Calu-3 [10] = assay: as above
U2OS [11] = assay: as above
Vero E6 [12] = assay: as above
HepG2 [13] = assay: cell viability relative to DMSO; higher = less toxic
HepG2 [14] = assay: relative viability EC50 (midpoint between 100% and the lowest measured viability); higher = less toxic
HepG2 [15] = assay: drug sensitivity score (DSS) for viability; higher = more toxic; extreme values may be limits of the assay

Row | SMILES | cell viability (Caco-2 [1]; 1 nM) | cell viability (Caco-2 [1]; 10 nM) | cell viability (Caco-2 [1]; 100 nM) | cell viability (Caco-2 [1]; 1000 nM) | cell viability (Caco-2 [1]; 10000 nM) | cell viability (Calu-3 [2]; 1 nM) | cell viability (Calu-3 [2]; 10 nM) | cell viability (Calu-3 [2]; 100 nM) | cell viability (Calu-3 [2]; 1000 nM) | cell viability (Calu-3 [2]; 10000 nM) | cell viability (U2OS [3]; 1 nM) | cell viability (U2OS [3]; 10 nM) | cell viability (U2OS [3]; 100 nM) | cell viability (U2OS [3]; 1000 nM) | cell viability (U2OS [3]; 10000 nM) | cell viability (Vero E6 [4]; 1 nM) | cell viability (Vero E6 [4]; 10 nM) | cell viability (Vero E6 [4]; 100 nM) | cell viability (Vero E6 [4]; 1000 nM) | cell viability (Vero E6 [4]; 10000 nM) | relative viability EC50 (Caco-2 [5]) | relative viability EC50 (Calu-3 [6]) | relative viability EC50 (U2OS [7]) | relative viability EC50 (Vero E6 [8]) | drug sensitivity score (Caco-2 [9]) | drug sensitivity score (Calu-3 [10]) | drug sensitivity score (U2OS [11]) | drug sensitivity score (Vero E6 [12]) | cell viability (HepG2 [13]; 1 nM) | cell viability (HepG2 [13]; 10 nM) | cell viability (HepG2 [13]; 100 nM) | cell viability (HepG2 [13]; 1000 nM) | cell viability (HepG2 [13]; 10000 nM) | relative viability EC50 (HepG2 [14]) | drug sensitivity score (HepG2 [15])
1 | CC(C)(C)NCC(O)c1ccccc1Cl (stereo not drawn) [tulobuterol] | 93.7% | 89.8% | 88.1% | 79.8% | 95.6% | 94.6% | 91.1% | 99.4% | 111% | 88.4% | 99.7% | 95.5% | 102% | 101% | 98.6% | 96.9% | 98.2% | 99.7% | 96.2% | 87% | > 10 µM | > 10 µM | > 10 µM | > 10 µM | 0 | 0 | 0 | 0.3 | – | – | – | – | – | – | –
2 | COc1cc(OCc2cccc(-c3ccccc3)c2C)cc(OC)c1CN1CCCC[C@H]1C(=O)O [PD1-PDL-inhibitor-1] | 104% | 94.5% | 94.4% | 96.3% | 102% | 98.2% | 99.1% | 98.1% | 102% | 102% | 99.3% | 98.7% | 101% | 99% | 95.8% | 99.5% | 106% | 99.3% | 105% | 103% | > 10 µM | > 10 µM | > 10 µM | > 10 µM | 0 | 0 | 0 | 0 | – | – | – | – | – | – | –
3 | CCS(=O)(=O)Nc1ccc2c(c1)/C(=C(/Nc1ccc(CN3CCCCC3)cc1)c1ccccc1)C(=O)N2 [hesperadin] | 95.1% | 91.8% | 90.7% | 68.7% | 48.4% | 107% | 95.7% | 84.8% | 70.3% | 62.1% | 102% | 94.3% | 80% | 22.1% | 0% | 92.7% | 101% | 82.7% | 73.2% | 16.9% | 0.512 µM | – | 0.329 µM | 1.52 µM | 6.9 | 6.8 | 16.9 | 7.6 | 99.1% | 94.4% | 58.8% | 8.8% | 5.1% | 0.119 µM | 21.5
4 | O=C(O)Cc1sc(-c2ccccc2)nc1-c1ccc(Cl)cc1 [fentiazac] | 100% | 98.9% | 92.6% | 97.6% | 95.3% | – | – | – | – | – | 99% | 98.7% | 95.2% | 93.9% | 92.4% | 99.3% | 101% | 96% | 99.7% | 92.2% | > 10 µM | – | > 10 µM | > 10 µM | 0 | – | 0 | 0 | 95.3% | 103% | 97.6% | 103% | 94.9% | > 10 µM | 0
5 | COc1ccc2c(c1)C=C1Cn3c-2c(C2CCCCC2)c2ccc(cc23)C(=O)NS(=O)(=O)N(C)CCOCCN(C)C1=O | 93.7% | 91.1% | 99% | 102% | 94.2% | – | – | – | – | – | 102% | 100% | 95.8% | 96.5% | 95.3% | 101% | 97.3% | 96.3% | 102% | 95.3% | > 10 µM | – | > 10 µM | > 10 µM | 0 | – | 0 | 0 | 97.3% | 93.5% | 106% | 97% | 105% | > 10 µM | 0
6 | CC(=O)NC[C@H]1CN(c2ccc(N3CCN(C(=O)CO)CC3)c(F)c2)C(=O)O1 [eperezolid] | 98.6% | 96.9% | 102% | 101% | 102% | – | – | – | – | – | 105% | 99.4% | 99.3% | 96.4% | 98.6% | 96.3% | 99.3% | 97.5% | 97.1% | 93.5% | > 10 µM | – | > 10 µM | > 10 µM | 0 | – | 0 | 0 | 99.1% | 98.7% | 89.1% | 88.2% | 81.1% | > 10 µM | 1.7
7 | COc1cc2c(cc1F)C(c1ccccc1Cl)=Nc1c(n[nH]c1C)N2 [RG1530] | 94.8% | 90.8% | 89.1% | 81.4% | 76.1% | 111% | 100% | 98.7% | 90.5% | 52.8% | 101% | 95.8% | 99.5% | 85.8% | 68.6% | 101% | 99% | 99.6% | 92.5% | 82.1% | > 10 µM | – | – | > 10 µM | 3.5 | 4 | 3.1 | 1.1 | 98.5% | 98.5% | 93.9% | 63.2% | 77.6% | – | 7.5
8 | COc1ccc2[nH]c(C(=O)c3ccccc3)cc2c1 | 95% | 108% | 62.1% | 55.4% | 43.2% | 107% | 104% | 89.3% | 67.8% | 56.2% | 96.5% | 99.9% | 91.5% | 37.3% | 23.3% | 95.1% | 97.9% | 79.6% | 30.5% | 26.6% | 0.0765 µM | – | 0.383 µM | 0.178 µM | 14.9 | 6.8 | 12.7 | 15.3 | 99.2% | 92.7% | 94.8% | 36.4% | 29.6% | 0.338 µM | 12.4
9 | Cc1ccc(OCCSc2ncccn2)c(Br)c1 [ZLN024] | 99.2% | 104% | 94.8% | 97% | 102% | – | – | – | – | – | 97.8% | 105% | 97.1% | 101% | 101% | 106% | 98.2% | 107% | 102% | 105% | > 10 µM | – | > 10 µM | > 10 µM | 0 | – | 0 | 0 | 105% | 106% | 109% | 99.9% | 110% | > 10 µM | 0
10 | O=C(O)c1c(Sc2ccccc2)c2cc(Cl)ccc2n1Cc1ccc(Cl)cc1 [nTZDpa] | 97.1% | 97% | 105% | 96.6% | 90.4% | – | – | – | – | – | 96.6% | 101% | 92.1% | 96.2% | 101% | 99.6% | 96% | 99.5% | 95.4% | 89.8% | > 10 µM | – | > 10 µM | > 10 µM | 0 | – | 0 | 0 | 96.9% | 92.1% | 96.8% | 97.3% | 90.7% | > 10 µM | 0
11 | CC[C@H]1CN2CC[C@H]1C[C@@H]2[C@@H](O)c1ccnc2ccc(OC)cc12 [hydroquinidine] | 105% | 106% | 94.6% | 94.7% | 87.4% | – | – | – | – | – | 99.9% | 99.4% | 97.3% | 97.8% | 98.6% | 97.4% | 102% | 103% | 107% | 91% | > 10 µM | – | > 10 µM | > 10 µM | 0.1 | – | 0 | 0 | 91.7% | 95.1% | 101% | 89.1% | 93.1% | > 10 µM | 0
12 | N#Cc1c(N)nc(SCC(N)=O)c(C#N)c1-c1ccc(OCC2CC2)cc1 [BAY-60-6583] | 104% | 102% | 102% | 95.9% | 99.1% | – | – | – | – | – | 106% | 100% | 101% | 98.7% | 99.4% | 99.4% | 94.7% | 93.3% | 96.6% | 93.7% | > 10 µM | – | > 10 µM | > 10 µM | 0 | – | 0 | 0 | 102% | 98.1% | 101% | 102% | 92.6% | > 10 µM | 0
13 | NCCCCN [putrescine] | 118% | 102% | 102% | 89% | 93.1% | – | – | – | – | – | 99.2% | 97.1% | 97.6% | 93.6% | 96.7% | 104% | 112% | 100% | 98.1% | 90.4% | > 10 µM | – | > 10 µM | > 10 µM | 0.2 | – | 0 | 0 | 110% | 101% | 110% | 97.3% | 93% | > 10 µM | 0
14 | N=C(N)c1ccc(-c2ccc(-c3ccc(C(=N)N)cc3)o2)cc1 [furamidine] | 97% | 92.8% | 98.1% | 101% | 95% | 92.6% | 104% | 97.1% | 96.4% | 110% | – | – | – | – | – | 99.7% | 97.3% | 97.9% | 97.8% | 102% | > 10 µM | > 10 µM | – | > 10 µM | 0 | 0 | – | 0 | 109% | 97.2% | 96.4% | 79.9% | 59.7% | – | 4.1
15 | Cc1noc(C)c1-c1cc(O)cc([C@@H](O)c2ccccc2)c1 [OXF-BD-02] | 100% | 92% | 99.3% | 92.5% | 80.3% | 98.9% | 95.2% | 99.8% | 96.8% | 70.8% | 97.2% | 94.2% | 99.7% | 86.9% | 59.3% | 102% | 103% | 94.6% | 76.9% | 17% | > 10 µM | – | – | 1.48 µM | 1.3 | 1.8 | 3.9 | 8 | 107% | 104% | 98.6% | 101% | 54.4% | – | 2.3
16 | CCOc1cc(C(C)(C)C)ccc1C1=N[C@@](C)(c2ccc(Cl)cc2)[C@@](C)(c2ccc(Cl)cc2)N1C(=O)N1CCN(CCCS(C)(=O)=O)CC1 [RG7112] | 101% | 95.9% | 104% | 94.5% | 56.6% | 98% | 94.6% | 101% | 89% | 77.5% | 97.6% | 98.1% | 96.9% | 80.5% | 44.7% | 106% | 107% | 99.3% | 78.1% | 28.8% | – | > 10 µM | 1.34 µM | 1.38 µM | 3.1 | 2 | 5.5 | 7.1 | 95.1% | 102% | 86.3% | 35.2% | 20.6% | 0.327 µM | 13.7
